Patent US20110082130A1 (LIGAND PHARMACEUTICALS, INC., priority 2006, published 2011)

Molecular target: T1, chimeric human H3 receptor (Homo sapiens, UniProt Q9Y5N1)
T1 construct: made in house; host or cells: Sf9 insect cells (baculovirus); P2 membrane preparation
Test: Chimeric human H3 receptor GTP binding assay (agonist-stimulated GTP-gamma35S binding, Example 7)
Assay type: biochemical
Conditions: Table I; P2 membranes of Sf9 cells, 1 μM histamine as agonist, Ki from IC50 by Cheng-Prusoff
Procedure, shortened: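 Sf9 membranes co-expressing chimeric human H3 receptor and heterotrimeric G-protein, 35 μg/tube, in pH 7.4 Tris buffer with 10 μM GDP. Test compounds (10^−10–10^−6 M) competed against 1 μM histamine, […] GTP-gamma35S, 60 min at room temperature. Filter-bound radioactivity counted; IC50 converted to Ki by Cheng-Prusoff. Agonism/inverse agonism tested without histamine (EC50).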

T1 sequence (Q9Y5N1 with tags, fused parts or gaps): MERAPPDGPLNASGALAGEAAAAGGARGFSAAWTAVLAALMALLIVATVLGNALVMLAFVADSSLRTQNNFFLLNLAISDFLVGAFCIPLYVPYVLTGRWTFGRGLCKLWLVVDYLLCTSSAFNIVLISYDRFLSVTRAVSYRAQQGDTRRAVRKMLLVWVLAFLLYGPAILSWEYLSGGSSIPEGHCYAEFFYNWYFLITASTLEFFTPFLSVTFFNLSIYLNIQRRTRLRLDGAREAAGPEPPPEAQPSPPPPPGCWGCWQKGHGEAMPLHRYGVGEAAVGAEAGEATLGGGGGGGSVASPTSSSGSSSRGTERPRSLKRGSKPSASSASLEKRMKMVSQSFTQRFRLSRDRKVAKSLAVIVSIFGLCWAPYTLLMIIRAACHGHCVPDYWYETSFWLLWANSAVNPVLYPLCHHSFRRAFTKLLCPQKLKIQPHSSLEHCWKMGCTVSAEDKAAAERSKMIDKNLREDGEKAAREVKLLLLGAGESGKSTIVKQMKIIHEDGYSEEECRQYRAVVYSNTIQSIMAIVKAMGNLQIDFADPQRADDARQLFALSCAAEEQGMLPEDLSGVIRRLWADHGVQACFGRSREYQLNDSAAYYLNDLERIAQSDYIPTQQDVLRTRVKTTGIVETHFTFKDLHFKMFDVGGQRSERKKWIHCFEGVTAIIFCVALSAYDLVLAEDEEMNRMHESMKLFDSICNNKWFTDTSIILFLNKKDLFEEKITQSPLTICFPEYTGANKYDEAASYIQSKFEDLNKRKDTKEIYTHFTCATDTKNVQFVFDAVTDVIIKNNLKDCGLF

Ki, < 1 µM:
O=C(CN1CCc2cncnc2CC1)N1CCN(C2CCC2)CC1 [Compound 80, 7-[2-(4-cyclobutylpiperazin-1-yl)-2-oxoethyl]-6,7,8,9-tetrahydro-5H-pyrimido[4,5-d]azepine]
COc1cc2c(cc1OC)CN(CC(=O)N1CCN(C3CCCC3)CC1)CC2 [Compound 47, 2-[2-(4-cyclopentylpiperazin-1-yl)-2-oxoethyl]-6,7-dimethoxy-1,2,3,4-tetrahydroisoquinoline]

Same assay, conditions: Table II "Ki", symbol *; assay of Example 7

Ki, < 1 µM:
O=C(CN1CCc2cc(-c3nccc4ccccc34)ccc2C1)N1CCN(C2CCC2)CC1 [Compound 637, 2′-[2-(4-cyclobutylpiperazin-1-yl)-2-oxoethyl]-1′,2′,3′,4′-tetrahydro-1,6′-biisoquinoline]
COCCC1CCCN(c2ccc3c(n2)CCN(CC(=O)N2CCN(C4CCC4)CC2)C3)C1 (stereo not drawn) [Compound 674, 6-[2-(4-cyclobutylpiperazin-1-yl)-2-oxoethyl]-2-[3-(2-methoxyethyl)piperidin-1-yl]-5,6,7,8-tetrahydro-1,6-naphthyridine]

Same assay, conditions: Table II; "*" = Ki in assay of Example 7 less than 1 micromolar

Ki, < 1 µM:
Cn1cc(-n2ncc3c2CCN(CC(=O)N2CCN(C4CCC4)CC2)C3)ccc1=O [Compound 263, 5-{5-[2-(4-cyclobutylpiperazin-1-yl)-2-oxoethyl]-4,5,6,7-tetrahydro-1H-pyrazolo[4,3-c]pyridin-1-yl}-1-methytpyridin-2(1H)-one]
CCC1CCC[C@H]2CN(C(=O)CN3CCc4cc(-n5ccc(C(F)(F)F)n5)ccc4C3)CCN12 (stereo in doubt) [Compound 161, 6-ethyl-2-({6-[3-(trifluoromethyl)-1H-pyrazol-1-yl]-3,4-dihydroisoquinolin-2(1H)-yl}acetyl)octahydro-2H-pyrido[1,2-a]pyrazine]
O=C(CN1CCc2cc(N3CCCC3)nnc2C1)N1CCN(C2CCC2)CC1 [Compound 221, 7-[2-(4-cyclobutylpiperazin-1-yl)-2-oxoethyl]-3-pyrrolidin-1-yl-5,6,7,8-tetrahydropyrido[3,4-c]pyridazine]
O=C(CN1CCc2nc(Br)sc2C1)N1CCN(C2CCC2)CC1 [Compound 97, 2-bromo-5-[2-(4-cyclobutylpiperazin-1-yl)-2-oxoethyl]-4,5,6,7-tetrahydro[1,3]thiazolo [5,4-c]pyridine]
Cn1cc(-n2cc3c(n2)CCN(CC(=O)N2CCN(C4CCC4)CC2)C3)ccc1=O [Compound 262, 5-{5-[2-(4-cyclobutylpiperazin-1-yl)-2-oxoethyl]-4,5,6,7-tetrahydro-2H-pyrazolo[4,3-c]pyridin-2-yl}-1-methylpyridin-2(1H)-one]
Cc1ccc(-c2ccc3c(c2)CCN(CC(=O)N2CCN(C4CCC4)CC2)C3)nn1 [Compound 166, 2-[2-(4-cyclobutylpiperazin-1-yl)-2-oxoethyl]-6-(6-methylpyridazin-3-yl)-1,2,3,4-tetrahydroisoquinoline]
O=C(CN1CCc2cc(-n3ncc4ccccc43)ccc2C1)N1CCN(C2CCC2)CC1 [Compound 230, 2-[2-(4-cyclobutylpiperazin-1-yl)-2-oxoethyl]-6-(1H-indazol-1-yl)-1,2,3,4-tetrahydroisoquinoline]
O=C(CN1CCc2cc(-n3ccc(C(F)(F)F)n3)ccc2C1)N1CCN2CCCCC2C1 (stereo not drawn) [Compound 159, 2-({6-[3-(trifluoromethyl)-1H-pyrazol-1-yl]-3,4-dihydroisoquinolin-2(1H)-yl}acetyl)octahydro-2H-pyrido[1,2-a]pyrazine]
CC1CCCC1N1CCN(C(=O)CN2CCc3nc(N4CCOCC4)ncc3C2)CC1 (stereo not drawn) [Compound 205, 6-{2-[4-(2-methylcyclopentyl)piperazin-1-yl]-2-oxoethyl}-2-morpholin-4-yl-5,6,7,8-tetrahydropyrido[4,3-d]pyrimidine]
COc1ccc(-c2ccc3c(c2)CCN(CC(=O)N2CCN(C4CCC4)CC2)C3)cn1 [Compound 95, 2-[2-(4-cyclobutylpiperazin-1-yl)-2-oxoethyl]-6-(6-methoxypyridin-3-yl)-1,2,3,4-tetrahydroisoquinoline]
Cn1cc(-c2cc3c(s2)CCN(CC(=O)N2CCN(C4CCC4)CC2)C3)ccc1=O [Compound 270, 5-{5-[2-(4-cyclobutylpiperazin-1-yl)-2-oxoethyl]-4,5,6,7-tetrahydrothieno[3,2-c]pyridin-2-yl}-1-methylpyridin-2(1H)-one]

Same assay, conditions: assay of Example 7; "*" in Ki of Table II

Ki, < 1 µM:
COc1ccc(-c2nc3c(s2)CN(CC(=O)N2CCN(C4CCC4)CC2)CC3)c(C)c1 [Compound 335, 5-[2-(4-cyclobutylpiperazin-1-yl)-2-oxoethyl]-2-(4-methoxy-2-methylphenyl)-4,5,6,7-tetrahydro[1,3]thiazolo [5,4-c]pyridine]
Cc1ccc(-c2nc3c(s2)CN(CC(=O)N2CCN(C4CCC4)CC2)CC3)cc1C [Compound 308, 5-[2-(4-cyclobutylpiperazin-1-yl)-2-oxoethyl]-2-(3,4-dimethylphenyl)-4,5,6,7-tetrahydro[1,3]thiazolo [5,4-c]pyridine]
CCOC(=O)c1cccc(-c2nc3c(s2)CN(CC(=O)N2CCN(C4CCC4)CC2)CC3)c1 [Compound 376, ethyl 3-{5-[2-(4-cyclobutylpiperazin-1-yl)-2-oxoethyl]-4,5,6,7-tetrahydro[1,3]thiazolo [5,4-c]pyridin-2-yl}benzoate]
COc1cccc(-c2ccc3c(c2)CCN(CC(=O)N2CCN(C4CCC4)CC2)C3)c1 [Compound 475, 2-[2-(4-cyclobutylpiperazin-1-yl)-2-oxoethyl]-6-(3-methoxyphenyl)-1,2,3,4-tetrahydroisoquinoline]
O=C(CN1CCc2cc(-c3ccc4c(c3)OCO4)ccc2C1)N1CCN(C2CCC2)CC1 [Compound 377, 6-(1,3-benzodioxol-5-yl)-2-[2-(4-cyclobutylpiperazin-1-yl)-2-oxoethyl]-1,2,3,4-tetrahydroisoquinoline]
O=C(CN1CCc2nc(-c3ccccc3Cl)sc2C1)N1CCN(C2CCC2)CC1 [Compound 357, 2-(2-chlorophenyl)-5-[2-(4-cyclobutylpiperazin-1-yl)-2-oxoethyl]-4,5,6,7-tetrahydro[1,3]thiazolo [5,4-c]pyridine]
COc1cccc(-c2nc3c(s2)CN(CC(=O)N2CCN(C4CCC4)CC2)CC3)c1 [Compound 315, 5-[2-(4-cyclobutylpiperazin-1-yl)-2-oxoethyl]-2-(3-methoxyphenyl)-4,5,6,7-tetrahydro[1,3]thiazolo [5,4-c]pyridine]
COc1ccc(-c2nc3c(s2)CN(CC(=O)N2CCN(C4CCC4)CC2)CC3)cc1F [Compound 322, 5-[2-(4-cyclobutylpiperazin-1-yl)-2-oxoethyl]-2-(3-fluoro-4-methoxyphenyl)-4,5,6,7-tetrahydro[1,3]thiazolo [5,4-c]pyridine]
COc1ccc(Cl)cc1-c1nc2c(s1)CN(CC(=O)N1CCN(C3CCC3)CC1)CC2 [Compound 338, 2-(5-chloro-2-methoxyphenyl)-5-[2-(4-cyclobutylpiperazin-1-yl)-2-oxoethyl]-4,5,6,7-tetrahydro[1,3]thiazolo [5,4-c]pyridine]
